In patent US5811271A, “Process for producing L-ketohexose” (Kabushiki Kaisha Hayashibara Seibutsu Kagaku Kenkyujo, priority 1994, dated 1998):

Biological target: T1, D-ketohexose 3-epimerase (Pseudomonas cichorii, UniProt O50580)
T1 construct: The cells which had been recovered from 80 liters of the resultant culture were crushed by grinding; made in house; host or cells: Pseudomonas cichorii ST-24 (FERM BP-2736), the natural producer; not recombinant
Assay: Relative enzyme activity of purified D-ketohexose 3-epimerase on L-ketohexose substrates
Assay type: biochemical, Pseudomonas cichorii ST-24
Settings: substrate in 0.1 M solution (pH 7.5), 11 units/g substrate of enzyme, 30° C., 24 hours; D-tagatose as control regarded as 100
Method: D-Ketohexose 3-epimerase was studied for relative enzyme activity on various L-ketohexoses. A purified D-ketohexose 3-epimerase obtained by the method in Example 1 was allowed to act on four different types of L-ketohexoses as substrates, i.e. L-psicose, L-fructose, L-sorbose and L-tagatose, to determine the enzyme activity on them. The reaction conditions were as follows: To either substrate in 0.1 M solution (pH 7.5) was added 11 units/g substrate of the enzyme and reacted at 30° C. for 24 hours. As a control, D-tagatose was used as substrate and the relative enzyme activity was regarded as 100.
The enzyme specimen thus obtained was assayed as follows: The reaction solution used in this assay consisted of 100 microliters of 50 mM Tris-HCl buffer (pH 7.5), 50 microliters 40 mM D-tagatose and 50 microliters of an enzyme solution. The enzymatic reaction was carried out at 30° C. for 60 minutes, and the formed D-sorbose was quantified on HPLC. One unit activity of the enzyme was defined as the amount of enzyme that epimerizes one micromol of D-tagatose into D-sorbose per minute.

Structure (SMILES)	Relative enzyme activity
O=C(CO)[C@@H](O)[C@@H](O)[C@H](O)CO [D-Tagatose, reference compound]	100
O=C(CO)[C@H](O)[C@@H](O)[C@@H](O)CO [L-Fructose]	about 5
O=C(CO)[C@@H](O)[C@@H](O)[C@@H](O)CO [L-Psicose]	about 20
O=C(CO)[C@@H](O)[C@H](O)[C@@H](O)CO [L-Sorbose]	about 2
O=C(CO)[C@H](O)[C@H](O)[C@@H](O)CO [L-Tagatose]	about 0.5
